Values belong to the compound of their own block, whether it stands above or below them.
Tested on: 598228-144-R-J1-PDC complex spheroids, viability
Assay: Anticancer human tumor 598228-144-R-J1-PDC patient-derived serous endometrial adenocarcinoma cell line growth inhibition [CLK]
Conditions: for IC50: curve of first compound; for viability, T/C: stronger effect = lower value
Procedure, shortened: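 Patient-derived tumor cells grown as complex spheroids with HUVEC endothelial cells and mesenchymal stem cells, treated with drug combinations. Concentrations descend in half-log steps from near clinical Cmax, or from 10 microM if Cmax unknown.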

[1] = second compound 0.0316 µM, first compound 0.0316 µM
[2] = second compound 0.0316 µM, first compound 0.1 µM
[3] = second compound 0.0316 µM, first compound 0.316 µM
[4] = second compound 0.0316 µM, first compound 1 µM
[5] = second compound 0.0316 µM, first compound 3.16 µM
[6] = second compound 0.0316 µM, first compound 10 µM
[7] = second compound 0.1 µM, first compound 0.0316 µM
[8] = second compound 0.1 µM, first compound 0.1 µM
[9] = second compound 0.1 µM, first compound 0.316 µM
[10] = second compound 0.1 µM, first compound 1 µM
[11] = second compound 0.1 µM, first compound 3.16 µM
[12] = second compound 0.1 µM, first compound 10 µM
[13] = second compound 0.316 µM, first compound 0.0316 µM
[14] = second compound 0.316 µM, first compound 0.1 µM
[15] = second compound 0.316 µM, first compound 0.316 µM
[16] = second compound 0.316 µM, first compound 1 µM
[17] = second compound 0.316 µM, first compound 3.16 µM
[18] = second compound 0.316 µM, first compound 10 µM
[19] = second compound 1 µM, first compound 0.0316 µM
[20] = second compound 1 µM, first compound 0.1 µM
[21] = second compound 1 µM, first compound 0.316 µM
[22] = second compound 1 µM, first compound 1 µM
[23] = second compound 1 µM, first compound 3.16 µM
[24] = second compound 1 µM, first compound 10 µM
[25] = second compound 3.16 µM, first compound 0.0316 µM
[26] = second compound 3.16 µM, first compound 0.1 µM
[27] = second compound 3.16 µM, first compound 0.316 µM
[28] = second compound 3.16 µM, first compound 1 µM
[29] = second compound 3.16 µM, first compound 3.16 µM
[30] = second compound 3.16 µM, first compound 10 µM
[31] = second compound 10 µM, first compound 0.0316 µM
[32] = second compound 10 µM, first compound 0.1 µM
[33] = second compound 10 µM, first compound 0.316 µM
[34] = second compound 10 µM, first compound 1 µM
[35] = second compound 10 µM, first compound 3.16 µM
[36] = second compound 10 µM, first compound 10 µM
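Also: spheroids exposed to compounds for seven days before readout.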
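For viability, T/C in this document: 100% = DMSO vehicle control wells.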

IC50 (second compound 0.0316 µM): 7050 nM
IC50 (second compound 0.1 µM): 6440 nM
IC50 (second compound 0.316 µM): 6420 nM
IC50 (second compound 1 µM): 6640 nM
IC50 (second compound 3.16 µM): 6110 nM
IC50 (second compound 10 µM): 6420 nM
SMILES: CC1(C)CCC(CN2CCN(c3ccc(C(=O)NS(=O)(=O)c4ccc(NCC5CCOCC5)c([N+](=O)[O-])c4)c(Oc4cnc5[nH]ccc5c4)c3)CC2)=C(c2ccc(Cl)cc2)C1 + CNC(=O)c1ccc(Nc2nc(OC3CCCC3)c3c(-c4ccc5nc(C)oc5c4)c[nH]c3n2)c(OC)c1
viability, T/C [1]: 96.4%
viability, T/C [2]: 116%
viability, T/C [3]: 105%
viability, T/C [4]: 96.5%
viability, T/C [5]: 100%
viability, T/C [6]: 28.1%
viability, T/C [7]: 105%
viability, T/C [8]: 97.6%
viability, T/C [9]: 103%
viability, T/C [10]: 99.4%
viability, T/C [11]: 99.4%
viability, T/C [12]: 19.5%
viability, T/C [13]: 106%
viability, T/C [14]: 104%
viability, T/C [15]: 98.5%
viability, T/C [16]: 103%
viability, T/C [17]: 105%
viability, T/C [18]: 16.6%
viability, T/C [19]: 106%
viability, T/C [20]: 99.9%
viability, T/C [21]: 96.5%
viability, T/C [22]: 95.4%
viability, T/C [23]: 99.2%
viability, T/C [24]: 22.8%
viability, T/C [25]: 99.1%
viability, T/C [26]: 91.1%
viability, T/C [27]: 79.9%
viability, T/C [28]: 84.3%
viability, T/C [29]: 89.3%
viability, T/C [30]: 21%
viability, T/C [31]: 86.3%
viability, T/C [32]: 89%
viability, T/C [33]: 83.3%
viability, T/C [34]: 81.2%
viability, T/C [35]: 97.6%
viability, T/C [36]: 26.6%

IC50 (second compound 0.0316 µM): 9480 nM
IC50 (second compound 0.1 µM): > 10000 nM
IC50 (second compound 0.316 µM): > 10000 nM
IC50 (second compound 1 µM): 6790 nM
IC50 (second compound 3.16 µM): 3300 nM
IC50 (second compound 10 µM): 2530 nM
SMILES: CC1COCCN1c1cc(C2(S(C)(=N)=O)CC2)nc(-c2ccnc3[nH]ccc23)n1 (stereo not drawn) + CNC(=O)c1ccc(Nc2nc(OC3CCCC3)c3c(-c4ccc5nc(C)oc5c4)c[nH]c3n2)c(OC)c1
viability, T/C [1]: 101%
viability, T/C [2]: 107%
viability, T/C [3]: 100%
viability, T/C [4]: 97.3%
viability, T/C [5]: 73.3%
viability, T/C [6]: 48.9%
viability, T/C [7]: 105%
viability, T/C [8]: 107%
viability, T/C [9]: 115%
viability, T/C [10]: 104%
viability, T/C [11]: 68.5%
viability, T/C [12]: 57.5%
viability, T/C [13]: 100%
viability, T/C [14]: 91.3%
viability, T/C [15]: 112%
viability, T/C [16]: 89%
viability, T/C [17]: 76.2%
viability, T/C [18]: 59.7%
viability, T/C [19]: 110%
viability, T/C [20]: 103%
viability, T/C [21]: 90.7%
viability, T/C [22]: 78.7%
viability, T/C [23]: 69.1%
viability, T/C [24]: 41.1%
viability, T/C [25]: 89.3%
viability, T/C [26]: 90.9%
viability, T/C [27]: 80.4%
viability, T/C [28]: 72.8%
viability, T/C [29]: 50.6%
viability, T/C [30]: 24.6%
viability, T/C [31]: 79.6%
viability, T/C [32]: 77.5%
viability, T/C [33]: 85.6%
viability, T/C [34]: 64.6%
viability, T/C [35]: 46.9%
viability, T/C [36]: 20.6%

IC50 (second compound 0.0316 µM): 362 nM
IC50 (second compound 0.1 µM): 525 nM
IC50 (second compound 0.316 µM): 644 nM
IC50 (second compound 1 µM): 467 nM
IC50 (second compound 3.16 µM): 301 nM
IC50 (second compound 10 µM): 160 nM
SMILES: NC(=O)C(=Cn1cnc(-c2cc(C(F)(F)F)cc(C(F)(F)F)c2)n1)c1cncnc1 + CNC(=O)c1ccc(Nc2nc(OC3CCCC3)c3c(-c4ccc5nc(C)oc5c4)c[nH]c3n2)c(OC)c1
viability, T/C (second compound 0.0316 µM, first compound 0.00949 µM): 110%
viability, T/C (second compound 0.0316 µM, first compound 0.03 µM): 97.5%
viability, T/C (second compound 0.0316 µM, first compound 0.0949 µM): 93.9%
viability, T/C (second compound 0.0316 µM, first compound 0.3 µM): 53.3%
viability, T/C (second compound 0.0316 µM, first compound 0.949 µM): 30.1%
viability, T/C (second compound 0.0316 µM, first compound 3 µM): 25.7%
viability, T/C (second compound 0.1 µM, first compound 0.00949 µM): 101%
viability, T/C (second compound 0.1 µM, first compound 0.03 µM): 99.8%
viability, T/C (second compound 0.1 µM, first compound 0.0949 µM): 97.9%
viability, T/C (second compound 0.1 µM, first compound 0.3 µM): 63.8%
viability, T/C (second compound 0.1 µM, first compound 0.949 µM): 36.4%
viability, T/C (second compound 0.1 µM, first compound 3 µM): 28.7%
viability, T/C (second compound 0.316 µM, first compound 0.00949 µM): 88.1%
viability, T/C (second compound 0.316 µM, first compound 0.03 µM): 95.9%
viability, T/C (second compound 0.316 µM, first compound 0.0949 µM): 82.3%
viability, T/C (second compound 0.316 µM, first compound 0.3 µM): 64%
viability, T/C (second compound 0.316 µM, first compound 0.949 µM): 43.5%
viability, T/C (second compound 0.316 µM, first compound 3 µM): 18.2%
viability, T/C (second compound 1 µM, first compound 0.00949 µM): 97.5%
viability, T/C (second compound 1 µM, first compound 0.03 µM): 97.3%
viability, T/C (second compound 1 µM, first compound 0.0949 µM): 85%
viability, T/C (second compound 1 µM, first compound 0.3 µM): 55.4%
viability, T/C (second compound 1 µM, first compound 0.949 µM): 37.1%
viability, T/C (second compound 1 µM, first compound 3 µM): 10.4%
viability, T/C (second compound 3.16 µM, first compound 0.00949 µM): 96.8%
viability, T/C (second compound 3.16 µM, first compound 0.03 µM): 73.6%
viability, T/C (second compound 3.16 µM, first compound 0.0949 µM): 68.2%
viability, T/C (second compound 3.16 µM, first compound 0.3 µM): 54.3%
viability, T/C (second compound 3.16 µM, first compound 0.949 µM): 30%
viability, T/C (second compound 3.16 µM, first compound 3 µM): 10.9%
viability, T/C (second compound 10 µM, first compound 0.00949 µM): 88.1%
viability, T/C (second compound 10 µM, first compound 0.03 µM): 72.3%
viability, T/C (second compound 10 µM, first compound 0.0949 µM): 58.7%
viability, T/C (second compound 10 µM, first compound 0.3 µM): 42%
viability, T/C (second compound 10 µM, first compound 0.949 µM): 19.6%
viability, T/C (second compound 10 µM, first compound 3 µM): 4.93%

IC50 (second compound 0.0316 µM): 1890 nM
IC50 (second compound 0.1 µM): 1930 nM
IC50 (second compound 0.316 µM): 2000 nM
IC50 (second compound 1 µM): 2200 nM
IC50 (second compound 3.16 µM): 1330 nM
IC50 (second compound 10 µM): 1020 nM
SMILES: Nc1ccccc1NC(=O)c1ccc(CNC(=O)OCc2cccnc2)cc1 + CNC(=O)c1ccc(Nc2nc(OC3CCCC3)c3c(-c4ccc5nc(C)oc5c4)c[nH]c3n2)c(OC)c1
viability, T/C [1]: 115%
viability, T/C [2]: 105%
viability, T/C [3]: 101%
viability, T/C [4]: 83%
viability, T/C [5]: 23.1%
viability, T/C [6]: 12.2%
viability, T/C [7]: 111%
viability, T/C [8]: 97.8%
viability, T/C [9]: 91.4%
viability, T/C [10]: 79.7%
viability, T/C [11]: 28.4%
viability, T/C [12]: 7.48%
viability, T/C [13]: 111%
viability, T/C [14]: 105%
viability, T/C [15]: 93%
viability, T/C [16]: 66.6%
viability, T/C [17]: 39%
viability, T/C [18]: 4.74%
viability, T/C [19]: 110%
viability, T/C [20]: 81.9%
viability, T/C [21]: 88.7%
viability, T/C [22]: 65%
viability, T/C [23]: 45.6%
viability, T/C [24]: 6.12%
viability, T/C [25]: 91.6%
viability, T/C [26]: 86.5%
viability, T/C [27]: 70.2%
viability, T/C [28]: 55.1%
viability, T/C [29]: 34.4%
viability, T/C [30]: 4.38%
viability, T/C [31]: 100%
viability, T/C [32]: 88.9%
viability, T/C [33]: 73.3%
viability, T/C [34]: 50.5%
viability, T/C [35]: 25.8%
viability, T/C [36]: 4.15%

Reference: PubChem BioAssay AID2060614 (Molecular Pharmacology Branch, DTP, NCI, 2025)
